# Tests used:
# [1] = test system: Stenotrophomonas maltophilia; design: method as in doi:10.15199/62.2017.11.9, PMID 25209896; conditions: cited from earlier work
# Candida albicans = test system: Candida albicans; design: method as in doi:10.15199/62.2017.11.9, PMID 25209896; conditions: cited from earlier work
# Staphylococcus aureus = test system: Staphylococcus aureus; design: method as in doi:10.15199/62.2017.11.9, PMID 26528244, PMID 24228999; conditions: cited from earlier work
# [2] = cited from earlier work
# MTS cell viability assay = format: cell-based; conditions: human, HaCaT keratinocyte cells, 1000 nM
# [3] = design: method as in PMID 29401704; conditions: compound 5 μM; cited from earlier work
# [4] = radical assay not named at the place (ABTS•+/DPPH• scavenging discussed); read-out: EC50 (antioxidant); cited from earlier work
# [5] = design: method as in PMID 15246878; conditions: read-out: IC50, inhibition of the superoxide-driven reduction of NBT by 50%; flavonoid:metal ion ratio 1:1 for complexes; cited from earlier work
smiles,measurement,setting,value
"O=C(/C=C/c1ccc(O)c(O)c1)O[C@@H]1C[C@](O)(C(=O)O)C[C@@H](O)[C@H]1O [5-CQA, 5-caffeoylquinic acid]",activity against Stenotrophomonas maltophilia,[1],shows activity
same,MIC,Candida albicans,80 µg/mL
same,MIC,Staphylococcus aureus,500 µg/mL
same,pKa1 (COOH),[2],3.35
same,pKa2,[2],8.30
same,pKa3 (OH in the meta position),[2],12.06
same,"viability at 24 h, 1 µM",MTS cell viability assay,101 ± 4.5%
O=C(C=Cc1ccc(O)c(O)c1)OC1CC(O)(C(=O)[O-])CC(O)C1O.[Li+] (stereo not shown) [CQA/Li],FRAP activity,[3],106.92 µM Fe^2+
O=C1O[C@H]([C@@H](O)CO)C(O)=C1O [L-ascorbic acid],EC50,[4],10.3 ± 0.98 µM
C[C@@H]1O[C@@H](OC[C@H]2O[C@@H](Oc3c(-c4ccc(O)c(O)c4)oc4cc(O)cc(O)c4c3=O)[C@H](O)[C@@H](O)[C@@H]2O)[C@H](O)[C@H](O)[C@H]1O [rutin],IC50,[5],9 µM

# — paper PMC9572621, “Fe(III) and Cu(II) Complexes of Chlorogenic Acid: Spectroscopic, Thermal, Anti-/Pro-Oxidant, and Cytotoxic Studies” (Materials, 2022)
